Data from patent US12171230B2, “Herbicidal compositions” (Bayer Aktiengesellschaft, priority 2018, dated 2024).
“And” between values parts separate entries of the source, which are not always exact repeats. Identical values can stand only once.

Assays:
Type in all cases: in vivo
[1] = test system: Bromus sterilis; assay: Post-emergence herbicidal action against Bromus sterilis; settings: 1 g of a.i./ha
[2] = test system: Alopecurus myosuroides; assay: Post-emergence herbicidal action against Alopecurus myosuroides
[3] = test system: Veronica hederifolia; assay: Post-emergence herbicidal action against Veronica hederifolia; settings: 28 DAT; 1 g a.i./ha

C=C[C@]1(C(=O)N[C@H]2CO[C@@H](C(=O)OC)C2)CC(c2cc(F)cc(F)c2)=NO1 (relative stereo) [Compound A3, methyl rel-(2R,4R)-4-[[(5S)-3-(3,5-difluorophenyl)-5-vinyl-4H-isoxazole-5-carbonyl]amino]tetrahydrofuran-2-carboxylate] was tested, and the “Herbicidal action in [%] 14 DAT against Bromus sterilis” value [1] was 15% and 30%, the “Herbicidal action in [%] 28 DAT against Bromus sterilis” value [1] was 15% and the Herbicidal action ([2]; 14 DAT, 1 g a.i./ha) was 30%. For the same compound, the Herbicidal action ([2]; 14 DAT, 4 g a.i./ha) was 75%, the Herbicidal action ([2]; 28 DAT, 1 g a.i./ha) was 10% and the Herbicidal action ([2]; 28 DAT, 4 g a.i./ha) was 60%. For the same compound, the Herbicidal action [3] was 30%.
